Reference: article PMC11892739, “Site-specific molecular glues for the 14-3-3/Tau pS214 protein–protein interaction via reversible covalent imine tethering” (RSC Medicinal Chemistry, 2025)

Molecular target: T1, 14-3-3ζ/Rubic peptide (Homo sapiens, UniProt P63104)
T1 construct: made in house; host or cells: NiCo21 (DE3) E. coli
Assay: FA peptide screen, 14-3-3ζ titration to client peptide and compound: Rubic
Type: binding
Conditions: 250 μM compound, 100 nM peptide; +1 Phe
Procedure: Since the hub protein 14-3-3 binds to hundreds of phosphoprotein partners, selectivity of PPI stabilization is a major challenge. The interplay of chemical reactivity, and the topology and functionality of the composite binding pocket shaped by 14-3-3 and Tau potentially provide entries towards selective stabilization. […] Here, 14-3-3ζ was titrated to a constant concentration of client peptide (100 nM) and compound (250 μM) to determine the SF250μM values for the particular 14-3-3 PPI. A variety of 14-3-3 binding proteins was represented in this client panel whereby the size and hydrophobicity of the +1 amino acid were varied. […]
chromatography (HisTrap high performance cartridges, Cytiva). Typically two 5 mL columns were used for a 2 L culture in which the lysate was loaded on the column, washed with 10 CV wash buffer (50 mM Hepes, pH 8.0, 300 mM NaCl, 25 mM imidazole, 2 mM βME), and eluted with several fractions (2-4 CV) of elution buffer (50 mM Hepes, pH 8.0, 300 mM NaCl, 250 mM imidazole, 2 mM βME). […] Dialyzed protein was concentrated to ∼40 mg/mL, analyzed by Q -Tof LC/MS, and aliquots were flash -frozen for storage at −80 °C. […] Fractions containing the 14 -3-3 protein were pooled and concentrated to ∼60 mg/mL, analyzed Q -Tof LC/MS, and aliquots were flash -frozen for storage at −80°C.
Fluorescence Anisotropy – compound titration […]

T1 sequence (P63104 whole entry, other chains not shown): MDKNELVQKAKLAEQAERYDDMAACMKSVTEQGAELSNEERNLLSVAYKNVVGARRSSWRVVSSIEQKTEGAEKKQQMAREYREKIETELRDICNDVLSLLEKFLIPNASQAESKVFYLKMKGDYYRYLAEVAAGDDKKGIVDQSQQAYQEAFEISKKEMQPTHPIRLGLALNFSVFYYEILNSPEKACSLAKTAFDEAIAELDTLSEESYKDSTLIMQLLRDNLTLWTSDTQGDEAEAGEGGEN

stabilization of 14-3-3/Rubic peptide (in words): no significant stabilization
Compound: CCc1ccc(-c2nccn2-c2ccc(C=O)c(Br)c2)cc1 [Compound 18]
